Earlier results as cited in paper PMC8748714, “Dynamics of GLP-1R peptide agonist engagement are correlated with kinetics of G protein activation” (Nature Communications, 2022).

Columns and labels:
GLP-1R [1] = system: GLP-1R
Text: Despite this conservation, these peptides induce distinct signalling profiles and have different mechanisms for receptor interaction. […] While there was also conservation in the TM bundle interactions when engaged by the four peptides, differences were identified in how each peptide uses different networks to facilitate G protein coupling. This transmission of information across the TM bundle also enables G ...

GLP-1R [2] = conditions: vs full-length exendin-4

GLP-1 (Ala2Gly): GLP-1 with Ala2Gly substitution
effect of residue 2 substitution on affinity (GLP-1R [1]; ref 31-33 (chimera ref 32)): reduced affinity

exendin(9–39): N-terminally truncated exendin-4 lacking the first 8 amino acids
lower affinity than corresponding full-length peptide (GLP-1R [1]; exendin(9–39) vs exendin-4, GLP-1(15–36) vs GLP-1): 10–30 fold

truncation of the first two residues of exendin-4: exendin-4 truncated by the first two residues
affinity on truncation of first two residues (GLP-1R [1]; vs full-length exendin-4): does not significantly alter its affinity
decrease in potency for cAMP signalling on truncation of first two residues (GLP-1R [2]): ~ 200 fold
